Results taken from US8859819B2, “Sulphurated derivatives of resorcinol, preparation of same and cosmetic uses thereof” (Pierre Fabre Dermo-Cosmetique, priority 2009, dated 2014).
pIC50: −log10 of the molar value. Like-named read-outs stand apart in the source and are kept apart here.

Assays:
mushroom tyrosinase = biological target: T1, mushroom tyrosinase (Agaricus bisporus, UniProt C7FF04); experiment: Tyrosinase inhibition test (in vitro acellular depigmenting activity); format: biochemical; settings: for Tyrosinase depigmenting activity result: class symbol, assay from 250 to 150 μM, overall tyrosinase activity (MPMOg), L-tyrosine substrate
T1 construct: purchased Sigma T-3824
T1 sequence (C7FF04 1-392 limits assumed): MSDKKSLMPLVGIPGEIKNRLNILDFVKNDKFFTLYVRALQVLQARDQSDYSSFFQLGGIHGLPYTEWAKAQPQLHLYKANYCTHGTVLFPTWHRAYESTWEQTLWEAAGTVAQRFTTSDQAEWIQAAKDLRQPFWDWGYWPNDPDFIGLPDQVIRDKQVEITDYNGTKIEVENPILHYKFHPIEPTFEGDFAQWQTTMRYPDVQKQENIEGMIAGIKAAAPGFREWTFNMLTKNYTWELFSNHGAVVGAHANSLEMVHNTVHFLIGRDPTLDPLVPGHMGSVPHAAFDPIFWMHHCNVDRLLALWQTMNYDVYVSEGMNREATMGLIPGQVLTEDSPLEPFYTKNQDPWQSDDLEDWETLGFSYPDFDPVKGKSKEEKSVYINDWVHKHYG
Excerpt: A) Determination of the Depigmenting Activity in an in vitro Acellular Test: Tyrosinase Inhibition Test)
This test is used to evaluate the depigmenting activity of the molecules tested. Tyrosinase is a limiting enzyme in melanogenesis.
It belongs to the family of oxydoreductases. It has in particular the function: monophenol monooxygenase (MPMO) and polyphenol oxidase (PPO).
It is synthesised at the level of the melanocytes. It is activated during its migration towards melanosome […]. It transforms tyrosine into DOPA then dopaquinone, which leads in fine to a polymerisation, i.e. a production of pigments (see diagram below).
The substrate: L-tyrosine, is transformed into L-DOPA by the monophenol mono oxygenase function which is transformed by the polyphenol oxidase function from tyrosinase into dopaquinone. The latter is going to self-oxidise into dopachrome which is measured by spectrophotometry at 490 nm.
More precisely, it is the overall tyrosinase activity (MPMOg) which is measured since it is the dopachrome in fine that is assayed. Thus the products tested on MPMOg (=measurement of the activity on PPO and MPMO) can cumulate the inhibition of the 2 functions, • inhibiting uniquely the MPMO function stricto sensus (transformation of tyrosine into DOPA) as a complement to the PPO test, • could inhibit PPO uniquely. General Experimental Conditions:

B16-F10 cells = experiment: Melanin assay test in B16-F10 cells; format: cell-based, murine
Description: B) Melanin Assay Test in B16-F10 Cells:
This involves a test of measuring the synthesis of melanin by colorimetric assay on a murine melanoma cell line: the B16-F10 line. This test makes it possible to evaluate the depigmenting power of active ingredients.
The B16-F10 cells are cultured in 96-well plates in DMEM medium supplemented with FCS (foetal calf serum), and incubated for 24 hours at 37° C., 5% CO2. The cells are then stimulated with 0.1 μM α-MSH (to stimulate the synthesis of melanin, the stimulation observed is around 150%) and treated for 72 hours with the active ingredients to be tested. Each concentration of active ingredient is tested at least in triplicate. The total melanin followed by the intracellular melanin dissolved in the lysis buffer are then assayed by absorbance reading at 405 nm. The total proteins are assayed in the lysate and the results are expressed in mg melanin/mg proteins. The percentage of activity is calculated as follows: […]
A negative value indicates an inhibition, whereas a positive value indicates an induction of the synthesis of melanin.
• B16-F10 cell line between P10 and P20 (murine melanocytes) (ATCC, CRL-6475)
Reagents: • DMEM without phenol red (GibcoBRL, 31053-028), 200 mM Glutamax-I Supplement (GibcoBRL, 35050-038), D-PBS (GibcoBRL, 14190-094), Foetal calf serum (Invitrogen, 10270-098), Trypsine-EDTA (GibcoBRL, 25300-054), NaOH (Sigma, S8045-500G), DMSO (Sigma, 471267-1L), Nle, Phe—Melanocyte Stimulating Hormone (Sigma, M-8764), Melanin (Sigma, M-0418), BCA-Copper (Sigma, B9643 and C2284), BSA (Sigma, P0914) C) Test for the Study of the Antioxidant Capacity by Chemiluminescence (Photochem Analytik Jena) Principle: […]

[1] = Antioxidant capacity by chemiluminescence (Photochem Analytik Jena); settings: Trolox equivalent; lower = stronger antioxidant
Description: This test is used to determine the antioxidant capacity of the molecules. It is a method that generates free radicals by a photochemical signal. The intensity of the oxidation is 1000 times greater than that obtained under normal conditions.
The detection is carried out by chemiluminescence. It enables the evaluation of hydrosoluble and liposoluble anti-oxidant molecules or extracts.
The results are expressed respectively in equivalent quantity of vitamin C or Trolox (6-hydroxy-2,5,7,8-tetramethylchroman-2-carboxylic acid). The sensitivity is of the order of a nanomole.
The antioxidant activity studied in this test represents the capacity to trap specifically superoxide anions by chemiluminescence.
The quantified results are expressed in Trolox equivalent (standard), i.e. in “μg of product for 1 μg of Trolox”. This signifies that a quantity×of sample is needed to obtain an activity equivalent to the activity detected for 1 μg of standard. It is an anti-oxidant power relative to a reference, which makes it possible to disregard the concentration tested.
The superoxide radical: 02^0− is generated by a photochemical reaction: L+hv (UV)+O2→L*O2→L^0++O2^0−
A part of the superoxide anions is quenched by the anti-oxidants. The remaining free radicals are quantified by chemiluminescence. L^0++O2^0−→N2+AP*^2−→AP^2−+hv (luminescence)

[2] = Protection of linoleic acid following a UV stress (Fenton conditions, MDA-TBA assay); set-up: % Protection Linoleic acid under UV/Fenton: concentration or dose not given beside the values; settings: UV + H2O2 + iron II
Excerpt: D) Test of Protection of Linoleic Acid Following a UV Stress. Target: Protection of Linoleic Acid Under Fenton Conditions, UV Irradiation Linoleic acid belongs to the family of polyunsaturated fatty acids (PUFA) (AGPI). Sensitive to oxidation, linoleic acid is a favoured target for oxygenated free radicals (OFR) in biological media. When biological membranes are exposed to an oxidative stress, the components the most affected are the phospholipids constituted of PUFA and cholesterol. Their degradation leads to lipidic peroxidation and generally to destructuring. Lipidic peroxidation is a self-catalysing process which generally involves OFR. Lipidic peroxidation is in part responsible for skin ageing. The method employed to evaluate lipid peroxidation is based on the coupling of thiobarbituric acid (TBA) and secondary degradation products leading to coloured compounds detectable by spectrofluorometry. The essential secondary compound of final degradation is malondialdehyde, MDA. MDA is a carcinogenic and mutagenic aldehyde, it acts on proteins and DNA. The sample to be tested is placed in contact with linoleic acid in a weight/weight ratio. The sample undergoes an MED (Minimal Erythemal Dose) irradiation under Fenton conditions, namely in the presence of H202 and iron II in a solar simulator. Following irradiation, the reaction mixture is taken up in methanol and derivatised at 90° C. with TBA. Chromogene, the MDA-TBA complex, representative of the equimolar production of MDA is assayed by fluorimetry (excitation at 525 nm, emission at 549 nm). The results are expressed in fluorescence units, as a function of a MDA-TBA control range then expressed as concentration of the MDA-TBA complex. Then, the percentage of the starting MDA/linoleic acid (LA) ratio is determined. Then the percentage of protection of linoleic acid is determined. The product assay is expressed as weight/weight ratio, in other words in weight percentage with respect to the total quantity of linoleic acid. The maximal MDA level is determined by the condition UV+H202+iron II (F). The percentage of protection of linoleic acid represents: the % ratio of MDA under maximal stress conditions untreated over the % of MDA under stress conditions treated by the product.

[3] = Mus musculus, B16-F10, 72 h, read-out: B16 activity results -% at X μM
[4] = Mus musculus, B16-F10, 50 μM, α-MSH stimulated, 72 hours, negative value = inhibition of melanin synthesis, read-out: B16 activity results -% at X μM

Structure (SMILES) | Tyrosinase depigmenting activity result (mushroom tyrosinase) | B16 activity results -% at X μM (B16-F10 cells; 14 μM, α-MSH stimulated, 72 hours, negative value = inhibition) | μg of sample for 1 μg of Trolox [1] | % Protection Linoleic acid under UV/Fenton [2] [%] | inhibition at 20 µM (B16-F10 cells; [3]) [%] | inhibition at 10 µM (B16-F10 cells; [3]) [%] | inhibition at 92 µM (B16-F10 cells; Mus musculus, B16-F10, 92 μM, α-MSH stimulated, 72 hours, negative value = inhibition, read-out: B16 activity results -% at X μM) [%] | inhibition at 50 µM (B16-F10 cells; [4]) [%] | inhibition at 50 µM (B16-F10 cells; [3]) [%] | pIC50 (mushroom tyrosinase) | inhibition at 73 µM (B16-F10 cells; Mus musculus, B16-F10, 73 μM, α-MSH stimulated, 72 hours, negative value = inhibition, read-out: B16 activity results -% at X μM) [%]
CC(C)=CCC/C=C(\C)CC/C(C)=C/COc1cc(O)ccc1Sc1ccc(O)cc1O [Example 2, 4-(4-hydroxy-2-((2E,6E)-3,6,11-trimethyldodcca-2,6,10-trienyloxy)phenylthio)benzene-1,3-diol] | + + | −50% (14 μM) | 9.7 μg of sample for 1 μg of Trolox | 92 |  |  |  |  |  |  | 
CC(C)=CCOc1cc(O)ccc1Sc1ccc(O)cc1O [Example 3, 4-(4-hydroxy-2-(3-methylbut-2-enyloxy)phenylthio)benzene-1,3-diol] | + + + |  | 4.7 μg of sample for 1 μg of Trolox | 87 | 41 |  |  |  |  |  | 
CC(C)=CCC/C(C)=C/COc1cc(O)ccc1Sc1ccc(O)cc1O [Example 4, (E)-4-(2-(3,7-dimethylocta-2,6-dienyloxy)-4-hydroxyphenylthio)benzene-1,3-diol] | + + + |  | 5.2 μg of sample for 1 μg of Trolox | 89 |  | 35 |  |  |  |  | 
CCCCCCCCOc1ccc(Sc2ccc(O)cc2O)c(O)c1 [Example 8, 4-(2-hydroxy-4-(octyloxy)phenylthio)benzene-1,3-diol] | + + + |  | 18.8 μg of sample for 1 μg of Trolox | 97 |  | 40 |  |  |  |  | 
Oc1ccc(Sc2ccc(O)cc2OCc2ccccc2)c(O)c1 [Example 9, 4-(2-(benzyloxy)-4-hydroxyphenylthio)benzene-1,3-diol] | + + + |  | 3.2 μg of sample for 1 μg of Trolox | 85 | 31 |  |  |  |  |  | 
Oc1ccc(Sc2ccc(OCc3ccccc3)cc2O)c(O)c1 [Example 10, 4-(4-(benzyloxy)-2-hydroxyphenylthio)benzene-1,3-diol] | + + + |  | 22 μg of sample for 1 μg of Trolox | 94 | 20 |  |  |  |  |  | 
COc1ccc(COc2cc(O)ccc2Sc2ccc(O)cc2O)cc1 [Example 11, 4-(4-hydroxy-2-(4-methoxybenzyloxy)phenylthio)benzene-1,3-diol] | + + + |  | 3.5 μg of sample for 1 μg of Trolox | 91 | 34 |  |  |  |  |  | 
CCCCCCCC(=O)Oc1cc(O)ccc1Sc1ccc(O)cc1O [Example 15, 2-(2,4-dihydroxyphenylthio)-5-hydroxyphenyl octanoate] | + + |  | 30 μg of sample for 1 μg of Trolox | 75 |  | 20 |  |  |  |  | 
O=C(CCc1ccccc1)Oc1cc(O)ccc1Sc1ccc(O)cc1O [Example 17, 2-(2,4-dihydroxyphenylthio)-5-hydroxyphenyl 3-phenylpropanoate] | + + + |  | 3.9 μg of sample for 1 μg of Trolox | 87 |  |  | 50 |  |  |  | 
O=C(CCc1ccccc1)Oc1ccc(Sc2ccc(O)cc2O)c(O)c1 [Example 18, 4-(2,4-dihydroxyphenylthio)-3-hydroxyphenyl 3-phenylpropanoate] | + + + |  | 24.1 μg of sample for 1 μg of Trolox | 90 |  |  |  | 20 |  |  | 
CC(C)CC(=O)Oc1cc(O)ccc1Sc1ccc(O)cc1O [Example 19, 2-(2,4-dihydroxyphenylthio)-5-hydroxyphenyl 3-methylbutanoate] | + + + |  | 2.8 μg of sample for 1 μg of Trolox | 88 |  |  |  | 20 |  |  | 
CC(C)CC(=O)Oc1ccc(Sc2ccc(O)cc2O)c(O)c1 [Example 20, 4-(2,4-dihydroxyphenylthio)-3-hydroxyphenyl 3-methylbutanoate] | + + + |  | 25.6 μg of sample for 1 μg of Trolox | 91 |  |  |  | 24 |  |  | 
CCCCCCCCNC(=O)Oc1cc(O)ccc1Sc1ccc(O)cc1O [Example 24, 2-(2,4-dihydroxyphenylthio)-5-hydroxyphenyl octylcarbamate] | + + + |  | 3.8 μg of sample for 1 μg of Trolox | 97 |  |  |  |  | 26 |  | 
[O-][S+](c1ccc(O)cc1O)c1ccc(O)cc1O [Example 25, 4,4′sulphinyldibenzene-1,3-diol] | + + + |  | 73 μg of sample for 1 μg of Trolox | 79 |  |  |  |  |  | 4.92 | 50
